Data published in patent US20230240953A1, “AN ANTIMICROBIAL COMPOSITION, PROCESS FOR PREPARING THE SAME AND METHOD OF USE THEREOF” (ISP INVESTMENTS LLC, priority 2020, published 2023).
Like-named read-outs stand apart in the source and are kept apart here.

Assays:
Experiment in all cases: Checkerboard microplate synergy assay, compound A = HPB
Type in all cases: cell-based
[1] = tested on: Aspergillus brasiliensis 16404; set-up: key to SI index (Synergy Index = Qa/QA+Qb/QB): SI = Qa/QA + Qb/QB (MICs in ppm); <1 synergy, =1 additive, >1 antagonism; conditions: for Interaction / SI index (Synergy Index = Qa/QA+Qb/QB): HPB + compound B; for MIC: Aspergillus brasiliensis, 16404, compound B alone, read-out: Compound B (Qb): MIC of compound B acting alone
Protocol: (§1) The synergistic antimicrobial effect was determined using a commonly accepted method described by Kull A. C, Eisman, P. C. Sylwestrowicz, H. D. and Mayer, R. L. 1961. Applied Microbiology, 9:538-541
(§2) Briefly, the standard checkerboard approach was used to make all the dilutions. HPB (compound A) solution was prepared and then serially diluted in DMSO using the 96-well dilution plate. Automated liquid handler was then used to stamp multiple assay plates using this dilution plate. Each well of the assay plate was then supplemented with a predetermined concentration of the second antimicrobial (compound B). The final concentration of DMSO was kept constant across the plate for each assay, not exceeding 3% (w/w).
To evaluate antifungal activity of the actives, freshly prepared A. brasiliensis spores were harvested and resuspended in Yeast and Malt Broth (YMB). The spore suspension was then added to the appropriate plates with the final density being 10^5 cfu/ml.
(§3) To evaluate antibacterial activity of the actives, freshly prepared S. aureus and B. cepacia cells were harvested and resuspended in Trypticase Soy Broth (TSB). The cell suspension was then added to the wells of the appropriate plates with the final cell density being 10^6 cfu/ml. Fungal plates were incubated at 28° C. for 4-5 days, prior to being evaluated. Bacterial plates were incubated for 48 hours at 35° C. prior to being evaluated.
(§4) Synergy Index (SI)=Qa/QA+Qb/QB • Qa is the MIC of compound A (HPB) in ppm, when compound A is being used in combination with compound B • QA is the MIC of compound A (HPB) in ppm, acting alone • Qb is the MIC of compound B in ppm, when the compound B is being used in combination with compound A • QB is the MIC of compound B in ppm, acting alone Each ratio Qa/QA and Qb/QB is sometimes referred to as Fractional Inhibitory Concentrations (FICs) of compounds A and B, respectively, when these two compounds are being used in combination with one another. The sum of FICs constitute the Synergy Index (SI). The synergistic effect is indicated if the Synergy Index is below one (SI<1). An additive effect is indicated if the Synergy Index is equal to one (SI=1). An antagonistic effect is indicated if synergy index is greater than one (SI>1). The lower the SI index the greater the synergy.

[2] = tested on: Staphylococcus aureus 6538; conditions: for Interaction / SI index (Synergy Index = Qa/QA+Qb/QB): HPB + compound B
Protocol: as §1, §2, §3, §4

[3] = tested on: Burkholderia cepacia 25416; conditions: for Interaction / SI index (Synergy Index = Qa/QA+Qb/QB): HPB + compound B
Protocol: as §1, §2, §3, §4

[4] = Staphylococcus aureus, 6538, S. aureus, compound B alone, read-out: Compound B (QB): MIC of compound B acting alone
[5] = Burkholderia cepacia, 25416, B. cepacia, compound B alone, read-out: Compound B (Qb): MIC of compound B acting alone

Compound | Interaction [1] | SI index (Synergy Index = Qa/QA+Qb/QB) [1] | Compound B (Qb): MIC of compound B when used in combination with HPB [1] | Compound B (Qb): MIC of compound B acting alone [1] | MIC [1] [µg/mL] | Interaction ([3]; B. cepacia) | SI index (Synergy Index = Qa/QA+Qb/QB) ([3]; B. cepacia) | Compound B (Qb): MIC of compound B when used in combination with HPB ([3]; B. cepacia) | further results
CCCCC(CC)COCC(O)CO (stereo not shown) [Ethylhexylglycerin] | Synergistic (The synergistic effect is indicated if the Synergy Index is below one (SI<1)) | 0.56 | 100 ppm | 1,600 ppm | – | – | – | – | –
Hexyl glycerin | Additive (An additive effect is indicated if the Synergy Index is equal to one (SI=1)) | 1 | 1,600 ppm | 3,125 ppm | – | – | – | – | –
CCCC(O)CO (stereo not shown) [1,2-Pentanediol] | Additive (An additive effect is indicated if the Synergy Index is equal to one (SI=1)) | 1 | 50,000 ppm | – | 100000 | – | – | – | –
OCc1ccccc1 [Benzyl alcohol] | Synergistic (The synergistic effect is indicated if the Synergy Index is below one (SI<1)) | 0.75 | 2,500 ppm | – | 5000 | – | – | – | Interaction ([2]; S. aureus): synergistic; SI index (Synergy Index = Qa/QA+Qb/QB) ([2]; S. aureus): ≤0.625; Compound B (Qb): MIC of compound B when used in combination with HPB ([2]; S. aureus): 625 ppm; MIC [2, 4]: 5000 µg/mL
[F-].[Na+] [Sodium fluoride] | – | – | – | – | – | synergistic | ≤0.625 | 10,000 ppm | Compound B (QB): MIC of compound B acting alone ([3]; B. cepacia, compound B alone): ≥200,000 ppm
O=C(O)CN(CCN(CC(=O)O)CC(=O)O)CC(=O)O [EDTA] | Synergistic (The synergistic effect is indicated if the Synergy Index is below one (SI<1)) | 0.56 | 800 ppm | 12,500 ppm | – | – | – | – | –
CCCCCCCCCCCCCC[N+](C)(C)C.[Br-] [Tetradecyl trimethyl ammonium bromide] | Synergistic (The synergistic effect is indicated if the Synergy Index is below one (SI<1)) | 0.375 | 3.1 ppm | – | 25 | synergistic | 0.625 | 6.3 ppm | Interaction ([2]; S. aureus): synergistic; SI index (Synergy Index = Qa/QA+Qb/QB) ([2]; S. aureus): ≤0.5; Compound B (Qb): MIC of compound B when used in combination with HPB ([2]; S. aureus): 0.4 ppm; MIC [2, 4]: 1.6 µg/mL; MIC [3, 5]: 50 µg/mL
CCCCCCC(O)CO (stereo not shown) [1,2-Octanediol] | Synergistic (The synergistic effect is indicated if the Synergy Index is below one (SI<1)) | 0.56 | 100 ppm | – | 1600 | – | – | – | –
O=P(O)(O)O[C@H]1[C@H](OP(=O)(O)O)[C@@H](OP(=O)(O)O)[C@H](OP(=O)(O)O)[C@@H](OP(=O)(O)O)[C@H]1OP(=O)(O)O [Phytic acid] | Synergistic (The synergistic effect is indicated if the Synergy Index is below one (SI<1)) | 0.75 | 3,125 ppm | – | 12500 | – | – | – | –
O=C(O)C=Cc1ccccc1 [Cinnamic acid] | Additive (An additive effect is indicated if the Synergy Index is equal to one (SI=1)) | 1-2 | 500 ppm | – | 500 | – | – | – | –
Glyceryl caprylate/caprate | Synergistic (The synergistic effect is indicated if the Synergy Index is below one (SI<1)) | 0.75 | 800 ppm | 3,125 ppm | – | – | – | – | –
CCCCNC(=O)OCC#CI [lodopropynyl butylcarbamate (IPBC), lodopropynyl butylcarbamate] | – | – | – | – | – | synergistic | 0.508 | 2 ppm | Compound B (QB): MIC of compound B acting alone ([3]; B. cepacia, compound B alone): 250 ppm
COc1ccc(C=O)cc1OC [Veratraldehyde] | Synergistic (The synergistic effect is indicated if the Synergy Index is below one (SI<1)) | 0.625 | 1,000 ppm | – | 2000 | synergistic | 0.75 | 1000 ppm | Interaction ([2]; S. aureus): synergistic; SI index (Synergy Index = Qa/QA+Qb/QB) ([2]; S. aureus): ≤0.625; Compound B (Qb): MIC of compound B when used in combination with HPB ([2]; S. aureus): 1,000 ppm; MIC ([2]; Staphylococcus aureus, 6538, read-out: Compound B (QB): MIC of compound B acting alone): ≥ 8000 µg/mL; MIC ([3]; Burkholderia cepacia, 25416, read-out: Compound B (Qb): MIC of compound B acting alone): 2000 µg/mL
OCCCc1ccccc1 | – | – | – | – | – | synergistic | 0.75 | 156 ppm | Interaction ([2]; S. aureus): synergistic; SI index (Synergy Index = Qa/QA+Qb/QB) ([2]; S. aureus): ≤0.5625; Compound B (Qb): MIC of compound B when used in combination with HPB ([2]; S. aureus): 156 ppm; Compound B (QB): MIC of compound B acting alone ([2]; S. aureus, compound B alone): 2,500 ppm; Compound B (QB): MIC of compound B acting alone ([3]; B. cepacia, compound B alone): 625 ppm
O=C(O)c1ccccc1 [Benzoic acid] | Synergistic (The synergistic effect is indicated if the Synergy Index is below one (SI<1)) | 0.75 | 500 ppm | – | 1000 | – | – | – | –
O=C(O)CC[C@@H](C(=O)O)N(CC(=O)O)CC(=O)O [GLDA] | Synergistic (The synergistic effect is indicated if the Synergy Index is below one (SI<1)) | 0.75 | 1,600 ppm | 6,250 ppm | – | – | – | – | –
Cc1occc(=O)c1O [Maltol] | Synergistic (The synergistic effect is indicated if the Synergy Index is below one (SI<1)) | 0.75 | 1,000 ppm | – | 2000 | – | – | – | –
COc1ccc(C(=O)O)cc1 [Anisic acid] | Synergistic (The synergistic effect is indicated if the Synergy Index is below one (SI<1)) | 0.75 | 250 ppm | 1,000 ppm | – | – | – | – | –
OCCc1ccccc1 [Phenethyl alcohol] | – | – | – | – | – | synergistic | 0.625 | 125 ppm | Interaction ([2]; S. aureus): synergistic; SI index (Synergy Index = Qa/QA+Qb/QB) ([2]; S. aureus): ≤0.75; Compound B (Qb): MIC of compound B when used in combination with HPB ([2]; S. aureus): 2,000 ppm; MIC [2, 4]: ≥ 4000 µg/mL; MIC [3, 5]: 1000 µg/mL
CCCCC(O)CO (stereo not shown) [1,2-Hexanediol] | Additive (An additive effect is indicated if the Synergy Index is equal to one (SI=1)) | 1 | 6,300 ppm | – | 12500 | – | – | – | –
OCCCO [1,3-Propanediol] | Additive (An additive effect is indicated if the Synergy Index is equal to one (SI=1)) | ≤1 | 100,000 ppm | ≥200,000 ppm | – | – | – | – | –
CCCCCCCC(=O)NO [Caprylhydroxamic acid] | Synergistic (The synergistic effect is indicated if the Synergy Index is below one (SI<1)) | 0.5625 | 125 ppm | – | 250 | synergistic | 0.75 | 31.3 ppm | Interaction ([2]; S. aureus): synergistic; SI index (Synergy Index = Qa/QA+Qb/QB) ([2]; S. aureus): ≤0.625; Compound B (Qb): MIC of compound B when used in combination with HPB ([2]; S. aureus): 125 ppm; MIC [2, 4]: 1000 µg/mL; MIC [3, 5]: 125 µg/mL
